In one experiment the test system is male ob/ob mice. The experiment can be described thus: ob/ob hypoglycemia test. The experiment is classed as in vivo. The settings on record: oral gavage once a day for three days, blood glucose lowering, calculated on day 3. As to the method:
The antidiabetic activity is indicated in vivo e.g. in the ob/ob hypoglycemia test in male ob/ob mice, given 1 to 200 mg/kg of drug. The mice, approximately 2 to 3 months of age, weighing about 30 g, are kept in a room at a controlled ambient temperature of 22° C and a 12/12 hour light/dark cycle for at least seven days before the screen and then during testing. In the ob/ob screen, Purina rodent chow and water are available ad libitum. For each screen, mice are matched and placed in treatment groups (six mice per group) on the basis of initial blood glucose levels the day prior to screening (day 0). Animals are dosed once a day for three days with either vehicle (carboxymethylcellulose 0.5 %, with Tween-80 0.2 %) or test compound in vehicle. The animals receive 0.1 ml/10 g body weight administered orally by gavage. On day 1, blood glucose levels are sampled from the tip of the tail at 2 and 4 hours post-dose. On day 3, blood glucose levels are sampled at 2, 4 and 8 hours post-dose. Blood glucose levels are measured by the glucose oxidase method (YSI Model 27, Yellow Springs, Ohio). […] A systematic, quantitative procedure for assessing the behavioral and physiological state of the mouse, in Psychopharmacologica 12 (1968) 222-257.
Efficacy for glucose lowering is determined by comparing glucose levels of control animals to those of treated animals. […]

The subject of experiment [1] is rat muscle cell line (L6 myocytes). The experiment can be described thus: L6 myocyte screen (glucose utilization). The experiment is classed as cell-based. The settings on record: differentiated L6 myocytes, 20 hours treatment, DMEM with 15 mM glucose, concentration producing 50 % of maximum response versus control, read-out: EC50 in the L6 myocyte test. The method, then:
This is indicated in standard tests, e.g. in vitro by the L6 myocyte screen in a rat muscle cell line:
The L6 myocyte screen determines the direct effects of 1 to 300 µM concentrations of the agents on glucose utilization in the rat muscle cell line. Rat L6 myoblasts (American Type Culture Collection) are maintained in Dulbecco's modified Eagle's medium (DMEM, Gibco) containing 5 mM glucose and 10 % calf serum supplement. The L6 myoblasts are plated in 96-well microtiter plates at a density of 3000 cells/well. Differentiated myocytes are used in experiments on the 11th or 13th day after plating. All test agents are dissolved in 1 % dimethylsulfoxide (DMSO) in serum-free testing media. The DMSO has no effect on glucose utilization. Each experiment includes the following internal controls: water, glucose standard (300 mg/dl), media blank, media control, ciglitazone standard (30 µM) and an insulin dose-response curve (0.03 - 1 µM). All compounds are tested in quadruplicate in each experiment at concentrations of 1, 3, 10, 30,100 and 300 µM. The L6 cells are treated with test compound and DMEM containing 15 mM glucose for 20 hours. Glucose utilization is assessed by measurement of glucose remaining in the media using a glucose oxidase assay (Ciba-Corning #S1004B). The EC50 is the concentration of the test agent estimated to produce 50 % of the maximum response versus control.

With `O=C1CC[C@]2(c3ccc(Cl)c(Cl)c3)O[C@H](COc3ccc(Cl)cc3)CN12` (racemic) [Example 3, (±)-trans-2-[(4-Chlorophenoxy)methyl]-7a-(3,4-dichlorophenyl)-2,3,7,7a-tetrahydropyrrolo[2,1-b]oxazol-5(6H)-one], in the experiment on male ob/ob mice, the “EC50 in the ob/ob hypoglycemia test” value is listed as “about 62 mg/kg”. Besides, in experiment [1], the EC50 was approximately 14 µM.

Turning to `O=C1CC[C@]2(c3ccc(Cl)c(Cl)c3)O[C@H](COc3ccc(Cl)cc3)CN12` [Example 1, (-)-trans-2S-[(4-Chlorophenoxy)methyl]-7A-(3,4-dichlorophenyl)-2,3,7,7a-tetrahydropyrrolo[2.1-b]oxazol-5(6H)-one], the half-maximal effective concentration (EC50) in experiment [1] is approximately 10 µM.

Usually EC50 stands for the concentration at which the effect is half-maximal.

(Values after EP0702015B1, “Bicyclic oxazole and thiazole substituted ethers” (Novartis AG, priority 1994, dated 1996).)
